Measurements from US7718186B2, “2-alkoxy-6-alkylphenyl-substituted spirocyclic tetramic acid derivatives” (Bayer CropScience AG, priority 2004, dated 2010).

Tests used:
Assay type in all cases: in vivo
[1] = test system: Setaria viridis; assay: Herbicidal pre-emergence action; details: greenhouse, 320 g of a.i./ha
Description: (§1) 1. Herbicidal Pre-emergence Action
(§2) Seeds of monocotyledonous and dicotyledonous weed and crop plants are placed into sandy loam in wood fiber pots and covered with soil. The test compounds, formulated in the form of wettable powders (WP) are then, as an aqueous suspension with a water application rate of 600 l/ha (converted), with 0.2% of wetting agent added, applied to the surface of the covering soil in various dosages.
(§3) After the treatment, the pots are placed in the greenhouse and kept under good growth conditions for the test plants. The visual assessment of the emergence damage on the test plants is carried out after a trial period of 3 weeks by comparison with untreated controls (herbicidal effect in percent (%): 100% effect=the plants have died, 0% effect=like control plants).

[2] = test system: Avena sativa; assay: Herbicidal pre-emergence action; details: greenhouse, 320 g of a.i./ha
Description: as §1, §2, §3

[3] = test system: Lolium multiflorum; assay: Herbicidal pre-emergence action; details: greenhouse, 320 g of a.i./ha
Description: as §1, §2, §3

[4] = test system: Setaria viridis; assay: Herbicidal post-emergence action; details: greenhouse, 320 g of a.i./ha
Method: (§4) 2. Herbicidal Post-emergence Action
(§5) Seeds of monocotyledonous and dicotyledonous weed and crop plants are placed into sandy loam in wood fiber pots, covered with soil and cultivated in the greenhouse under good growth conditions. Two to three weeks after sowing, the test plants are treated at the one-leaf stage. The test compounds, formulated as wettable powders (WP), are then, in various dosages with a water application rate of 600 l/ha (converted), with 0.2% of wetting agent added, sprayed onto the green parts of the plants. After the test plants have been kept in the greenhouse under optimum growth conditions for about 3 weeks, the effect of the preparations is rated visually in comparison to untreated controls (herbicidal effect in percent (%): 100% effect=the plants have died, 0% effect=like control plants).

[5] = test system: Echinocloa crus-galli; assay: Herbicidal post-emergence action; details: greenhouse, 320 g of a.i./ha
Method: as §4, §5

[6] = test system: Lolium multiflorum; assay: Herbicidal post-emergence action; details: greenhouse, 320 g of a.i./ha
Method: as §4, §5

[7] = test system: Summer wheat; assay: Container trials with cereal in a greenhouse, with and without safener (post-emergence); details: crop damage, 28 days after application
Method: (§6) Herbicidal Post-emergence Action
(§7) Seeds of monocotyledonous and dicotyledonous weed and crop plants are placed into sandy loam in wood fiber pots or in plastic pots, covered with soil and cultivated in a greenhouse, during the vegetation period also outdoors outside of the greenhouse, under good growth conditions. Two to three weeks after sowing, the test plants are treated at the one- to three-leaf stage. The test compounds, formulated as wettable powders (WP) or liquid (EC) are, in various dosages with a water application rate of 300 l/ha (converted), with wetting agent (0.2 to 0.3%) added, sprayed onto the plants and the surface of the soil. Three to four weeks after the treatment of the test plants, the effect of the preparations is rated visually in comparison to untreated controls (herbicidal effect in percent (%):
(§8) (100% effect=the plants have died, 0% effect=like control plants).
(§9) If it is additionally to be tested as to whether safeners can improve the plant compatibility of test substances in the case of crop plants, the following options are used for applying the safener: • seeds of the crop plants are, before sowing, dressed with the safener substance (amount of safener stated in percent, based on the weight of the seed) • before the application of the test substances, the crop plants are sprayed with the safener at a certain application rate per hectare (usually 1 day before the application of the test substances) • the safener is applied together with the test substance as a tank mix (amount of safener stated in g/ha or as a ratio, based on the herbicide).
(§10) By comparing the effect of the test substances on crop plants without or with safener treatment, it is possible to assess the effect of the safener substance.
(§11) Container Trials with Cereal in a Greenhouse
(§12) Mefenpyr 1 Day Prior to Herbicide Application

[8] = test system: Summer barley; assay: as above; details: crop damage; 50 g of a.i./ha; 28 days after application
Method: as §6, §7, §8, §9, §10, §11, §12

| SMILES | Setaria (herbicidal effect in percent) [1] | Avena (herbicidal effect in percent) [2] | Lolium (herbicidal effect in percent) [3] | Setaria (herbicidal effect in percent) [4] | Echinochloa (herbicidal effect in percent) [5] | Lolium (herbicidal effect in percent) [6] | Summer wheat observed (%) ([7]; 12.5 g of a.i./ha) | Summer wheat observed (%) ([7]; 25 g of a.i./ha) | Summer wheat observed (%) ([7]; 50 g of a.i./ha) | Summer barley observed (%) [8] [%] |
| --- | --- | --- | --- | --- | --- | --- | --- | --- | --- | --- |
| CCc1cc(C)cc(OC)c1C1=C(O)C2(CCC(OC)CC2)NC1=O (single isomer, unassigned) [Example I-a-6] | 100 | 100 | 100 | 90 | 100 | 100 | – | – | – | – |
| CCc1cc(C)cc(OC)c1C1=C(O)C2CCCN2C1=O (stereo not shown) [Example I-a-2] | – | – | – | 100 | 100 | 100 | 40 | 60 | 95 | 90 |
